Tests used:
human 5-LOX = target: T1, human 5-LOX (Homo sapiens, UniProt P09917); test: 5-LOX enzyme activity, fluorescence method (5-HPETE, H2DCFDA); format: biochemical; details: read-out: 5-LO (IC50)
T1 construct: purchased Cayman 60402; host or cells: insect cells (lysate)
T1 sequence (P09917 1-674): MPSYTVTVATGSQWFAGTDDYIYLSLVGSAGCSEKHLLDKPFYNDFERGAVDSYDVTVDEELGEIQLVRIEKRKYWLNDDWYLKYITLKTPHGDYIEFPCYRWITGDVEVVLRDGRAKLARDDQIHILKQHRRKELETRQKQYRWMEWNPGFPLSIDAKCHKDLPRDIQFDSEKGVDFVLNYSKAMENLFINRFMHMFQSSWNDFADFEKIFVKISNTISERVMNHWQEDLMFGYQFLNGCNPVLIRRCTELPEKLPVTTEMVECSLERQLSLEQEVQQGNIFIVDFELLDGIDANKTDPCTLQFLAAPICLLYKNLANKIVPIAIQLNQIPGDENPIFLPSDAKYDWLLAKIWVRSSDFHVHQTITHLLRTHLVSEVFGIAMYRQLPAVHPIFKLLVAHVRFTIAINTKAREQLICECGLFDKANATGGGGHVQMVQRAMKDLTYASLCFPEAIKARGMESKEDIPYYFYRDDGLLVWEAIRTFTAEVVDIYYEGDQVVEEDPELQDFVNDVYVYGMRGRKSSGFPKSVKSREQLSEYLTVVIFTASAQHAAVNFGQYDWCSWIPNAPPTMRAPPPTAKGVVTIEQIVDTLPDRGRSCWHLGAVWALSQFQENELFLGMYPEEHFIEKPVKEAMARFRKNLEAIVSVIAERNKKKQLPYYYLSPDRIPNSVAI
Summary of the method: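 Compound (0.5 nM to 10 uM) pre-incubated 5 min with enzyme; reaction started with ATP (100 uM final) and arachidonic acid (3 uM final). All steps at room temperature, fluorescence read-out.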

[1] = test system: Rat basophilic leukemia (RBL) cells; test: LTB4 secretion assay in RBL (rat basophilic leukemia cells); format: cell-based; details: Rattus norvegicus, RBL
Summary of the method: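 Cells seeded 2×10^4/well the day before, then pre-incubated 15 min at 37 °C in EMEM/0.5% FBS with compound (5 nM to 100 uM). Stimulation with 2.5 uM arachidonic acid plus 5 uM A23187 (final) for 10 min at 37 °C; LTB4 in supernatant quantified by EIA.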

Structure (SMILES)	IC50 (human 5-LOX) [µM]	EC50 [1] [µM]
CN(C)c1nc2ccc(NCc3ccc(C4(C(N)=O)CCOCC4)cc3)cc2[nH]1 [Compound 237]	< 1	> 20
CCC(Nc1nc2ccc(Nc3cc(C(F)(F)F)n(C)n3)cc2n1C)c1ccc(Oc2ncc(C(F)(F)F)cn2)cc1 (stereo not drawn) [Compound 520]	> 10	< 10
Cn1c(NCc2ccc3c(ccn3-c3ccc(Cl)cn3)c2)nc2ccc(N)cc21 [Compound 451]	< 1	< 10
Nc1ccc2nc(N)n(Cc3ccc(Oc4ccc(Cl)cn4)c(Cl)c3)c2c1 [Compound 255]	< 1	< 10
Cn1nccc1-c1ccc(CNc2nc3cc(NC4COC4)ccc3[nH]2)cc1 [Compound 201]	< 1	> 20
Cn1c(NCc2ccc(Oc3cnc4cc(Cl)ccc4n3)cc2)nc2ccc(NC3COC3)cc21 [Compound 427]	< 1	< 10
Cn1c(NCc2ccc(Oc3ccc(Cl)cc3)cc2)nc2ccc(N3CCC3)cc21 [Compound 182]	< 1	10 to 20
Cn1c(NCCOc2ccc(Cl)c(Cl)c2)nc2ccc(N)cc21 [Compound 60]	< 1	< 10
Nc1ccc2nc(N3CCC(F)(F)C3)n(CCOc3ccc(OC(F)(F)F)cc3)c2c1 [Compound 100]	< 1	< 10
Cn1c(NCc2ccc(-n3ccc4cc(Cl)cnc43)cc2)nc2ccc(NC3COC3)cc21 [Compound 446]	< 1	< 10
Nc1ccc2nc(NCc3ccc(C(=O)c4ccccn4)cc3)[nH]c2c1 [Compound 141]	< 1	> 20

The next lines start with the values.

IC50 (human 5-LOX) [µM]	EC50 [1] [µM]	Structure (SMILES)
1 to 10	< 10	CCn1c(NCc2ccc(Oc3ncc(C(F)(F)F)cn3)cc2)nc2ccc(Nc3cc(C(F)(F)F)n(C)n3)cc21 [Compound 521]
> 10	< 10	Cn1c(NCc2ccc(Oc3ncc(Cl)cc3Cl)cc2)nc2ccc(NC3COC3)cc21 [Compound 322]
1 to 10	> 20	Cn1c(NCc2ccc(Oc3ncc(Cl)cn3)cc2)nc2ccc(NC3C[S+]([O-])C3)cc21 (stereo not drawn) [Compound 386]
< 1	> 20	CN(C)c1nc2cc(N3CCCC(Oc4ccc(OC(F)(F)F)cc4)C3)ccc2[nH]1 (stereo not drawn) [Compound 183]
< 1	> 20	Cn1c(N2CCC(C(=O)Nc3ccc(OC(F)(F)F)cc3)C2)nc2ncc(N)cc21 (stereo not drawn) [Compound 76]
< 1	10 to 20	Cn1c(NCc2ccc(Oc3ccc(Cl)cc3)cc2)nc2ccc(NCC(N)=O)cc21 [Compound 170]
< 1	> 20	Cn1c(NCc2ccc(Oc3ncc(Cl)cn3)cc2)nc2ccc(NC3CN(C(N)=O)C3)cc21 [Compound 408]
< 1	< 10	Nc1ccc2nc(NCc3coc(Cc4ccc(Cl)cc4)n3)[nH]c2c1 [Compound 186]
< 1	< 10	CC(CC(F)(F)F)Nc1ccc2[nH]c(NCc3ccc(Oc4ccc(Cl)cc4)cc3)nc2c1 (stereo not drawn) [Compound 134]
< 1	< 10	CCOC(=O)c1coc(-c2ccc(CNc3ccc4[nH]c(N(C)C)nc4c3)cc2)n1 [Compound 218]
< 1	< 10	OCCn1c(NCc2ccc(Oc3ccc(Cl)cn3)cc2)nc2ccc(NC3COC3)cc21 [Compound 257]
< 1	< 10	Nc1ccc2nc(N)n(Cc3ccc(Oc4nc5ccccc5o4)cc3)c2c1 [Compound 246]
1 to 10	< 10	Cn1c(NC2(c3ccc(Oc4ncc(Cl)cn4)cc3)CC2)nc2ccc(N)cc21 [Compound 472]
< 1	< 10	Cn1c(NCc2ccc(Oc3ncc(Cl)c(C4CC4)n3)cc2)nc2ccc(N)cc21 [Compound 397]
< 1	< 10	Cn1c(NCc2ccc(Oc3ccc(OC(F)(F)F)cn3)cc2)nc2ccc(N)cc21 [Compound 377]
< 1	10 to 20	Nc1ccc2[nH]c(N3CCC(Oc4ccc(OC(F)(F)F)cc4Cl)C3)nc2c1 (stereo not drawn) [Compound 71]

From US11447486B2, “2-amino-benzimidazole derivatives and their use as 5-lipoxygenase and/or prostaglandin E synthase inhibitors” (INSTITUT PASTEUR KOREA, priority 2014, dated 2022)
